Consider 13 molecules from PubChem BioAssay AID248 (DTP/NCI, 2004).

This test relates to L1210 leukemia ip in BDF1 mice, survival T/C. In words: NCI In Vivo Anticancer Drug Screen. Data for tumor model L1210 Leukemia (intraperitoneal) in B6D2F1 (BDF1) mice. The note with it: endpoint: mean survival time, higher = longer survival. Summed up: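 In this screen, tumor-bearing mice given compound are compared to those given vehicle, and their survival values are reported as a treated-to-control quotient.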

[1] abbreviates: dose: 100.0 mg/kg/injection, schedule: Q01DX009 (ip), vehicle: Klucel (hydroxypropylcellulose) (HPC).
The mark [2] stands for this setting: dose: 200.0 mg/kg/injection, schedule: Q01DX009 (ip), vehicle: Klucel (hydroxypropylcellulose) (HPC).
The mark [3] stands for this setting: dose: 400.0 mg/kg/injection, schedule: Q01DX009 (ip), vehicle: Klucel (hydroxypropylcellulose) (HPC).
[4] abbreviates: dose: 400.0 mg/kg/injection, schedule: Q01DX001 (ip), vehicle: acetone.

Values joined by “and” are separate entries in the source; they are usually repeats but may differ in a detail not shown here. Equal entries are not always repeated. Toxic doses and inconclusive results are not listed.

In the case of `CCC(/C=C1\Oc2ccc(-c3ccccc3)cc2N1CC)=C\c1oc2ccc(-c3ccccc3)cc2[n+]1CC`, the T/C reads like this: (dose: 0.1 mg/kg/injection, schedule: Q01DX009 (ip), vehicle: other) 102 % of control; (dose: 0.3 mg/kg/injection, schedule: Q01DX009 (ip), vehicle: other) 110 % of control; (dose: 0.6 mg/kg/injection, schedule: Q01DX009 (ip), vehicle: other) 116 % of control; (dose: 0.62 mg/kg/injection, schedule: Q01DX009 (ip), vehicle: saline) 111 % of control; (dose: 1.2 mg/kg/injection, schedule: Q01DX009 (ip), vehicle: other) 116 % of control; (dose: 1.25 mg/kg/injection, schedule: Q01DX009 (ip), vehicle: saline) 108 % of control. Besides, the T/C (dose: 2.5 mg/kg/injection, schedule: Q01DX009 (ip), vehicle: saline) is 114 % of control; the T/C (dose: 2.6 mg/kg/injection, schedule: Q01DX009 (ip), vehicle: other) is 122 % of control; the T/C (dose: 5.0 mg/kg/injection, schedule: Q01DX009 (ip), vehicle: saline) is 103 % of control; the T/C (dose: 19.0 mg/kg/injection, schedule: Q01DX001 (ip), vehicle: other) is 109 % of control.
In the case of `NC(Cc1ccccc1)C(=O)CCl` (stereo unspecified), the T/C by setting is: (dose: 25.0 mg/kg/injection, schedule: Q04DX002 (ip), vehicle: saline) 105 % of control; (dose: 50.0 mg/kg/injection, schedule: Q04DX002 (ip), vehicle: saline) 108 % of control.
With `O=C1C2C3CCC(O3)C2C(=O)N1Cc1ccccc1CN1C(=O)C2C3CCC(O3)C2C1=O` (stereo unspecified), the T/C is, setting by setting: under setting [1], 91 % of control; under setting [2], 91 % of control; under setting [3], 88 % of control.
For the molecule `O=c1[nH]cnc2[nH]cc([N+](=O)[O-])c12`, the T/C is, setting by setting: (dose: 50.0 mg/kg/injection, schedule: Q01DX001 (ip), vehicle: carboxymethylcellulose (CMC)) 101 % of control; (dose: 100.0 mg/kg/injection, schedule: Q01DX001 (ip), vehicle: carboxymethylcellulose (CMC)) 89 % of control; (dose: 200.0 mg/kg/injection, schedule: Q01DX001 (ip), vehicle: carboxymethylcellulose (CMC)) 98 % of control and 87 % of control; (dose: 400.0 mg/kg/injection, schedule: Q01DX001 (ip), vehicle: carboxymethylcellulose (CMC)) 93 % of control and 97 % of control.
On to `Cc1cc2nc3c(=O)[nH]c(=O)nc-3n(CC(O)C(O)C(O)C(O)CO)c2cc1C` (stereo unspecified), for which the T/C by setting is: (dose: 14.12 mg/kg/injection, schedule: Q01DX Z (ip), vehicle: carboxymethylcellulose (CMC)) 91 % of control; (dose: 25.0 mg/kg/injection, schedule: Q01DX015 (ip), vehicle: saline) 100 % of control; (dose: 28.25 mg/kg/injection, schedule: Q01DX Z (ip), vehicle: carboxymethylcellulose (CMC)) 93 % of control; (dose: 50.0 mg/kg/injection, schedule: Q01DX015 (ip), vehicle: saline) 96 % of control; (dose: 56.5 mg/kg/injection, schedule: Q01DX Z (ip), vehicle: carboxymethylcellulose (CMC)) 90 % of control; (dose: 100.0 mg/kg/injection, schedule: Q01DX015 (ip), vehicle: saline) 96 % of control. Also, the T/C is, setting by setting: (dose: 100.0 mg/kg/injection, schedule: Q01DX Z (ip), vehicle: carboxymethylcellulose (CMC)) 97 % of control; (dose: 113.0 mg/kg/injection, schedule: Q01DX Z (ip), vehicle: carboxymethylcellulose (CMC)) 89 % of control; (dose: 200.0 mg/kg/injection, schedule: Q01DX015 (ip), vehicle: saline) 97 % of control and 98 % of control; (dose: 200.0 mg/kg/injection, schedule: Q01DX Z (ip), vehicle: carboxymethylcellulose (CMC)) 97 % of control; under setting [4], 103 % of control; (dose: 400.0 mg/kg/injection, schedule: Q01DX015 (ip), vehicle: saline) 92 % of control. In addition, the T/C reads like this: (dose: 400.0 mg/kg/injection, schedule: Q01DX Z (ip), vehicle: carboxymethylcellulose (CMC)) 94 % of control; (dose: 800.0 mg/kg/injection, schedule: Q01DX001 (ip), vehicle: acetone) 95 % of control; (dose: 800.0 mg/kg/injection, schedule: Q01DX Z (ip), vehicle: carboxymethylcellulose (CMC)) 90 % of control.
With `CC(=O)OCC1(C[N+](C)(C)C)CC1`, the T/C by setting is: (dose: 100.0 mg/kg/injection, schedule: Q01DX001 (ip), vehicle: saline) 103 % of control; (dose: 100.0 mg/kg/injection, schedule: Q04DX003 (ip), vehicle: saline) 100 % of control; (dose: 200.0 mg/kg/injection, schedule: Q01DX001 (ip), vehicle: saline) 97 % of control; (dose: 200.0 mg/kg/injection, schedule: Q04DX003 (ip), vehicle: saline) 100 % of control; (dose: 400.0 mg/kg/injection, schedule: Q01DX001 (ip), vehicle: saline) 105 % of control; (dose: 400.0 mg/kg/injection, schedule: Q04DX003 (ip), vehicle: saline) 100 % of control.
Take `O=[N+]([O-])c1ccc(N/N=C/c2ccc(/C=N/Nc3ccc([N+](=O)[O-])cc3)cc2)cc1`: the T/C reads like this: (dose: 15.0 mg/kg/injection, schedule: Q01DX Z (ip), vehicle: carboxymethylcellulose (CMC)) 116 % of control; (dose: 30.0 mg/kg/injection, schedule: Q01DX Z (ip), vehicle: carboxymethylcellulose (CMC)) 104 % of control; (dose: 60.0 mg/kg/injection, schedule: Q01DX Z (ip), vehicle: carboxymethylcellulose (CMC)) 98 % of control and 106 % of control; (dose: 120.0 mg/kg/injection, schedule: Q01DX Z (ip), vehicle: carboxymethylcellulose (CMC)) 96 % of control and 98 % of control; (dose: 240.0 mg/kg/injection, schedule: Q01DX Z (ip), vehicle: carboxymethylcellulose (CMC)) 98 % of control; (dose: 240.0 mg/kg/injection, schedule: Q01DX Z (oral), vehicle: carboxymethylcellulose (CMC)) 103 % of control. In addition, the T/C (dose: 480.0 mg/kg/injection, schedule: Q01DX Z (ip), vehicle: carboxymethylcellulose (CMC)) is 95 % of control; the T/C (dose: 480.0 mg/kg/injection, schedule: Q01DX Z (oral), vehicle: carboxymethylcellulose (CMC)) was 103 % of control; the T/C (dose: 960.0 mg/kg/injection, schedule: Q01DX Z (oral), vehicle: carboxymethylcellulose (CMC)) was 103 % of control.
In the case of `Cc1cc(C)nc(NS(=O)(=O)c2ccc(N=Nc3nc4[nH]c(N)nc(=S)c4[nH]3)cc2)n1`, the T/C by setting is: (dose: 6.25 mg/kg/injection, schedule: Q01DX009 (ip), vehicle: Klucel (hydroxypropylcellulose) (HPC)) 151 % of control and 177 % of control; (dose: 12.5 mg/kg/injection, schedule: Q01DX009 (ip), vehicle: Klucel (hydroxypropylcellulose) (HPC)) 153 % of control; (dose: 25.0 mg/kg/injection, schedule: Q01DX009 (ip), vehicle: Klucel (hydroxypropylcellulose) (HPC)) 112 % of control; under setting [2], 102 % of control.
As for `O=c1[nH]c(CCCOc2ccccc2)nc2ccccc12`, the T/C is, setting by setting: (dose: 50.0 mg/kg/injection, schedule: Q01DX001 (ip), vehicle: Klucel (hydroxypropylcellulose) (HPC)) 93 % of control; (dose: 100.0 mg/kg/injection, schedule: Q01DX001 (ip), vehicle: Klucel (hydroxypropylcellulose) (HPC)) 104 % of control; (dose: 200.0 mg/kg/injection, schedule: Q01DX001 (ip), vehicle: Klucel (hydroxypropylcellulose) (HPC)) 104 % of control.
Regarding `O=S(O)c1ccccc1`, the T/C reads like this: (dose: 100.0 mg/kg/injection, schedule: Q01DX009 (ip), vehicle: saline) 96 % of control; (dose: 200.0 mg/kg/injection, schedule: Q01DX009 (ip), vehicle: saline) 105 % of control; (dose: 400.0 mg/kg/injection, schedule: Q01DX009 (ip), vehicle: saline) 103 % of control.
For the molecule `O=C(O)CSCc1ccc(Cl)cc1`, the T/C (dose: 100.0 mg/kg/injection, schedule: Q01DX001 (ip), vehicle: acetone) was 95 % of control; the T/C (dose: 100.0 mg/kg/injection, schedule: Q04DX003 (ip), vehicle: Klucel (hydroxypropylcellulose) (HPC)) was 94 % of control; the T/C (dose: 200.0 mg/kg/injection, schedule: Q01DX001 (ip), vehicle: acetone) is 97 % of control; the T/C (dose: 200.0 mg/kg/injection, schedule: Q04DX003 (ip), vehicle: Klucel (hydroxypropylcellulose) (HPC)) is 98 % of control; the T/C under setting [4] is 97 % of control; the T/C (dose: 400.0 mg/kg/injection, schedule: Q04DX003 (ip), vehicle: Klucel (hydroxypropylcellulose) (HPC)) is 98 % of control.
`CCOC(=O)c1ccccc1COc1ccc([N+](=O)[O-])cc1Cl`: the T/C was 93 % of control under setting [1], 93 % of control under setting [2] and 88 % of control under setting [3].
As for `CCOCCOCCOC(C)Oc1ccc(C(C)C)cc1` (stereo unspecified), the T/C was 93 % of control (dose: 100.0 mg/kg/injection, schedule: Q04DX002 (ip), vehicle: saline); 104 % of control (dose: 200.0 mg/kg/injection, schedule: Q04DX002 (ip), vehicle: saline); 101 % of control (dose: 400.0 mg/kg/injection, schedule: Q04DX002 (ip), vehicle: saline).
